Assays:
[1] = tested on: Hydra cell aggregates; test: Hydra cell aggregate development / morphogenesis blocking; assay type: cell-based, Hydra vulgarie; settings: 10 μM, Time 0 to 96 hr
Method: All experiments utilized Hydra vulgarie (previously named Hydra attenuata). Animals were cultured as described previously (Sarras et al., 1991a, supra) and were not fed for 24 hr prior to use.
Hydra cell aggregates were prepared according to Gierer et al., (1972, supra) with modification described by Sans et al., (1993, supra). They were incubated either in microtiter plates (NUNS, Denmark) with one aggregate/well/10 μl incubation solution or in 96-well plates (Falcon) with three to five aggregates/well/50 μl incubation solution. Antibiotics were used throughout all steps of aggregate preparation to assure that the aggregates used in this study were free of any symbionic bacterial populations (Sarra et al., 1993, supra). […] By 24 hr of cell pellet formation, hydra cell aggregates develop septate junctions between epithelial cells (Wood et at., 1980. J. Ultrastruc. Res. 70:104-117). These junctions prevent the introduction of macromolecules from medium into mesoglea. […]
Criteria for morphogenesis was as follows. […] The percentage of aggregates-with head and tentacle structures at 96 hr of development was calculated and data for each group from different experiments were pooled and plotted. […] Using an ANOVA statistical test, a P value <0.05 was taken as the level of significant difference in all groups analyzed. […]

[2] = tested on: hydra cells; test: Inhibition of DNA synthesis in hydra cell aggregates; assay type: cell-based, Hydra vulgarie; settings: 10 μM, Time 0 to 96 hr

## NC(=O)NO [HU, hydroxyurea]
[1]
  morphogenesis of hydra cell aggregates: did not inhibit
[2]
  DNA synthesis: completely blocked
